{
  "source": "patent US20050288347A1",
  "about": "“Certain triazole-based compounds, compositions, and uses thereof” (priority 2004, published 2005)",
  "test_system": "protein kinase",
  "assay": "HTS ATP-utilizing enzyme assay, off-chip mobility-shift format (Caliper HTS 250)",
  "assay_type": "biochemical, human",
  "details": "test compound 10 μM; active = activity greater than three-sigma from the mean of the predominately inactive population for that enzyme",
  "outline": "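Single-point screen at 10 μM compound in HEPES pH 7.5 buffer with Triton X-100 and BSA, 2.5 h at 20–22 °C. Substrate-to-phosphopeptide ratio measured by off-chip microfluidic mobility shift; EDTA wells as 100% and DMSO wells as 0% control, hits called at three-sigma limits.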",
  "note": "Entries after “also recorded” stand apart in the source; their conditions may differ.",
  "data": [
    {"smiles": "Cn1cnnc1SCc1csc(Cc2ccc(Cl)c(Cl)c2)n1", "values": [
      {"measurement": "protein kinase against which the compound exhibits inhibitory activity (Table 3)", "value": "GSK3-α"}
    ]},
    {"smiles": "O=[N+]([O-])c1ccc(-c2nnc(CSc3nncn3-c3ccccn3)o2)cc1", "values": [
      {"measurement": "protein kinase against which the compound exhibits inhibitory activity (Table 3)", "value": "PDGFRR-α"}
    ]},
    {"smiles": "Cc1ccc(CSc2nnc(CSc3nc(C)cc(C)n3)n2Cc2ccco2)cc1", "values": [
      {"measurement": "protein kinase against which the compound exhibits inhibitory activity (Table 3)", "value": "CDK2-cyclinA"}
    ]},
    {"smiles": "N#Cc1ccccc1CSc1nnc(-c2ccc(OC(F)(F)F)cc2)[nH]1", "values": [
      {"measurement": "protein kinase against which the compound exhibits inhibitory activity (Table 3)", "value": "AURORA-A"}
    ]},
    {"smiles": "COc1ccc(-n2c(CNc3cc(C(F)(F)F)ccc3Cl)nnc2SCc2ccccc2Cl)cc1", "values": [
      {"measurement": "protein kinase against which the compound exhibits inhibitory activity (Table 3)", "value": "CDK1"}
    ]},
    {"smiles": "Cc1ccc(NCc2nnc(SCc3nnc(-c4ccccc4)o3)n2CC2CCCO2)c(C)c1", "note": "(stereo not drawn)", "values": [
      {"measurement": "protein kinase against which the compound exhibits inhibitory activity (Table 3)", "value": "SYK"}
    ]},
    {"smiles": "CC(C)(C)c1ccc(CSc2nnc(COc3ccc(Cl)cc3)n2-c2ccccc2)cc1", "values": [
      {"measurement": "protein kinase against which the compound exhibits inhibitory activity (Table 3)", "value": "SYK"}
    ]},
    {"smiles": "c1ccc(CSc2nnc(CCC3CCCC3)n2Cc2cccnc2)cc1", "values": [
      {"measurement": "protein kinase against which the compound exhibits inhibitory activity (Table 3)", "value": "GSK3-α"}
    ]},
    {"smiles": "Clc1ccc(Cn2c(CCC3CCCC3)nnc2SCc2ccccc2)cc1Cl", "values": [
      {"measurement": "protein kinase against which the compound exhibits inhibitory activity (Table 3)", "value": "GSK3-β; also recorded: AURORA-A; also recorded: c-TAK1"}
    ]},
    {"smiles": "Cc1ccc(CCn2c(CCC3CCCC3)nnc2SCc2ccccc2)cc1", "values": [
      {"measurement": "protein kinase against which the compound exhibits inhibitory activity (Table 3)", "value": "AURORA-A; also recorded: c-TAK1"}
    ]},
    {"smiles": "Clc1cccc(NCc2nnc(SCc3ccccc3Cl)n2-c2ccccc2)c1", "values": [
      {"measurement": "protein kinase against which the compound exhibits inhibitory activity (Table 3)", "value": "LCK"}
    ]},
    {"smiles": "Clc1cccc(NCc2nnc(SCc3ccc(Cl)cc3Cl)n2-c2ccccc2)c1", "values": [
      {"measurement": "protein kinase against which the compound exhibits inhibitory activity (Table 3)", "value": "LCK"}
    ]},
    {"smiles": "COc1cc(CSc2nnc[nH]2)c(OC)cc1CSc1nnc[nH]1", "values": [
      {"measurement": "protein kinase against which the compound exhibits inhibitory activity (Table 3)", "value": "CSK and LCK"}
    ]},
    {"smiles": "COCCCn1c(SCc2ccc(C(C)(C)C)cc2)nnc1-c1ccncc1", "values": [
      {"measurement": "protein kinase against which the compound exhibits inhibitory activity (Table 3)", "value": "DYRK2"}
    ]},
    {"smiles": "CCn1c(SCc2cc(=O)[nH]c3ccccc23)nnc1-c1cc2ccccc2cc1O", "values": [
      {"measurement": "protein kinase against which the compound exhibits inhibitory activity (Table 3)", "value": "AURORA-A"}
    ]},
    {"smiles": "O=C(O)c1ccc(CSc2nnc(-c3ccc(OC(F)(F)F)cc3)[nH]2)cc1", "values": [
      {"measurement": "protein kinase against which the compound exhibits inhibitory activity (Table 3)", "value": "FLT-3; also recorded: AURORA-A; also recorded: DYRK2"}
    ]},
    {"smiles": "CCc1nnc(SCc2ccccc2)n1Cc1ccc(Cl)c(Cl)c1", "values": [
      {"measurement": "protein kinase against which the compound exhibits inhibitory activity (Table 3)", "value": "GSK3-α; also recorded: GSK3-β; also recorded: AURORA-A"}
    ]},
    {"smiles": "Cc1ccc(S(=O)(=O)N(Cc2nnc(SCc3ccc(Cl)cc3Cl)n2-c2ccccc2)c2cccc(Cl)c2)cc1", "values": [
      {"measurement": "protein kinase against which the compound exhibits inhibitory activity (Table 3)", "value": "LCK"}
    ]},
    {"smiles": "CC1=CC(C)=NCN1SCc1nnc(SCc2ccc([N+](=O)[O-])cc2)n1Cc1ccco1", "values": [
      {"measurement": "protein kinase against which the compound exhibits inhibitory activity (Table 3)", "value": "LYNA"}
    ]},
    {"smiles": "Cc1ccc(NCc2nnc(SCc3nnc(-c4ccccc4)o3)n2Cc2ccco2)c(C)c1", "values": [
      {"measurement": "protein kinase against which the compound exhibits inhibitory activity (Table 3)", "value": "AURORA-A"}
    ]},
    {"smiles": "Cn1c(CNc2ccc(F)cc2)nnc1SCc1c(Cl)cccc1Cl", "values": [
      {"measurement": "protein kinase against which the compound exhibits inhibitory activity (Table 3)", "value": "GSK3-β; also recorded: GSK3-α"}
    ]},
    {"smiles": "Cc1ccc(NCc2nnc(SCc3ccc(C(C)(C)C)cc3)n2-c2ccc(C)cc2)cc1", "values": [
      {"measurement": "protein kinase against which the compound exhibits inhibitory activity (Table 3)", "value": "AURORA-A and SYK"}
    ]},
    {"smiles": "Cc1ccc(NCc2nnc(SCc3ccccc3)n2C)cc1", "values": [
      {"measurement": "protein kinase against which the compound exhibits inhibitory activity (Table 3)", "value": "AURORA-A"}
    ]},
    {"smiles": "COc1ccccc1-n1c(SC(C)C(=O)NCc2ccco2)nnc1-c1ccccc1", "note": "(stereo not drawn)", "values": [
      {"measurement": "protein kinase against which the compound exhibits inhibitory activity (Table 3)", "value": "AKT1"}
    ]},
    {"smiles": "CCOC(=O)c1ccc(CSc2nnc(-c3ccc(OC(F)(F)F)cc3)[nH]2)o1", "values": [
      {"measurement": "protein kinase against which the compound exhibits inhibitory activity (Table 3)", "value": "FLT-3; also recorded: GSK3-β"}
    ]},
    {"smiles": "CCOC(=O)c1ccc(CSc2nnc(Cc3ccc(OC)cc3)[nH]2)o1", "values": [
      {"measurement": "protein kinase against which the compound exhibits inhibitory activity (Table 3)", "value": "FLT-3"}
    ]},
    {"smiles": "CCOC(=O)c1ccc(CSc2nnc(-c3ccc([N+](=O)[O-])cc3)[nH]2)o1", "values": [
      {"measurement": "protein kinase against which the compound exhibits inhibitory activity (Table 3)", "value": "AURORA-A"}
    ]}
  ]
}
